BigSolDB 2.1

O=C1OC(=O)[C@H]2[C@@H]1[C@@H]1C=C[C@H]2O1
solubility (mole fraction)
Settings	278.15 K	283.15 K	288.15 K	293.15 K	298.15 K	303.15 K	308.15 K	313.15 K	318.15 K	323.15 K
in 1,4-dioxane	–	–	0.0221	0.0275	0.0342	0.0421	0.052	0.0682	0.0869	0.131
in acetone	0.0386	0.0439	0.0477	0.0551	0.0617	0.0703	0.0814	0.0929	0.104	0.126
in ethanol	0.000635	0.00076	0.00091	0.00102	0.00124	0.00145	0.00169	0.00202	0.00238	0.00292
in ethyl acetate	0.0152	0.0165	0.02	0.0223	0.0274	0.0309	0.0364	0.0414	0.0475	0.0559
in methyl acetate	0.0225	0.028	0.0297	0.0357	0.0416	0.0483	0.0587	0.068	0.0805	0.0963
